Patent US20070299087A1, “New Compounds 319” (AstraZeneca AB, priority 2006, published 2007)
Where a name gives a salt, the structure may show the parent alone.

target: T1, human β-Secretase (sBACE-Fc) (Homo sapiens, UniProt P56817); assay: TR-FRET assay (β-secretase enzyme, substrate (Europium)[…](Qsy7)); type: biochemical
T1 construct: The soluble part of the human β-Secretase (AA 1-AA 460) was cloned; Fc domain of IgG1 (C); made in house
Method: The enzyme used in the IGEN Cleavage-, Fluorescent-, TR-FRET- and BiaCore assays is described as follows:
The soluble part of the human β-Secretase (AA 1-AA 460) was cloned into the ASP2-Fc10-1-IRES-GFP-neoK mammalian expression vector. The gene was fused to the Fc domain of IgG1 (affinity tag) and stably cloned into HEK 293 cells. Purified sBACE-Fc is stored in Tris buffer, pH 9.2 and has a purity of 95%.
Enzyme was diluted to 6 μg/mL and the substrate (Europium)[…](Qsy7) to 200 nM in reaction buffer (NaAcetate, chaps, triton x-100, EDTA pH 4.5). Compounds were diluted to the desired concentration in dimethyl sulfoxide (final dimethyl sulfoxide concentration in assay is 5%). The assay was done in a Costar 384 well round bottom, low volume, non-binding surface plate (Corning #3676). Enzyme (9 μL) and 1 μL of compound in dimethyl sulfoxide was added to the plate, mixed and pre-incubated for 10 min. Substrate (10 μL) was added and the reaction proceeded in the dark for 15 min at RT. The reaction was stopped with the addition of 7 μL NaAcetate, pH 9. The fluorescence of the product was measured on a Victor II plate reader with an excitation wavelength of 340 nm and an emission wavelength of 615 nm. […] The dimethyl sulfoxide control defined the 100% activity level and 0% activity was defined by exclusion of the enzyme (using reaction buffer instead).

T1 sequence (P56817 22-460): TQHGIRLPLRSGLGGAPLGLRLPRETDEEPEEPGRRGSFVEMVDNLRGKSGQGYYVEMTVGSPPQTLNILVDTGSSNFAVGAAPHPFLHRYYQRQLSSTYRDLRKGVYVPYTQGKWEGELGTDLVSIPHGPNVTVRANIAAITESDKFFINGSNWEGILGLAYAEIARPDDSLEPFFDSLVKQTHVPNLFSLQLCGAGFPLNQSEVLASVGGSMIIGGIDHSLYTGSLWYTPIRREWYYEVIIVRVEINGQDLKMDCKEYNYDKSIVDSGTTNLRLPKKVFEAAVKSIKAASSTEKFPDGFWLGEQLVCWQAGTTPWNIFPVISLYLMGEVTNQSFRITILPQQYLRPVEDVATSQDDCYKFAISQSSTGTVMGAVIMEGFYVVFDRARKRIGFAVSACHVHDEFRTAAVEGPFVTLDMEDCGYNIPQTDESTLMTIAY

Row | Structure (SMILES) | IC50 [nM]
1 | N#Cc1cccc(-c2cccc(C3(c4ccncc4)N=C(N)N4CCCN=C43)c2)c1 (stereo not shown) [Example 13, 3′-(6-Amino-8-pyridin-4-yl-2,3,4,8-tetrahydroimidazo[1,5-a]pyrimidin-8-yl)-biphenyl-3-carbonitrile hydrochloride] | 353
2 | COc1cccc(-c2cccc(C3(c4ccncc4)N=C(N)N4CCCN=C43)c2)c1 (stereo not shown) [Example 14, 8-(3′-Methoxybiphenyl-3-yl)-8-pyridin-4-yl-2,3,4,8-tetrahydroimidazo[1,5-a]pyrimidin-6-amine 0.25 acetate] | 72
3 | NC1=NC(c2ccncc2)(c2cccc(-c3cccc(Cl)c3)c2)C2=NCCCN12 (stereo not shown) [Example 16, 8-(3′-Chlorobiphenyl-3-yl)-8-pyridin-4-yl-2,3,4,8-tetrahydroimidazo[1,5-a]pyrimidin-6-amine 0.25 acetate] | 53
4 | NC1=NC(c2ccncc2)(c2cccc(-c3cccnc3F)c2)C2=NCCCN12 (stereo not shown) [Example 17, 8-[3-(2-Fluoropyridin-3-yl)phenyl]-8-pyridin-4-yl-2,3,4,8-tetrahydroimidazo[1,5-a]pyrimidin-6-amine 0.25 acetate] | 150
5 | N#Cc1ccc(F)c(-c2cccc(C3(c4ccncc4)N=C(N)N4CCCN=C43)c2)c1 (stereo not shown) [Example 20, 3′-(6-amino-8-pyridin-4-yl-2,3,4,8-tetrahydroimidazo[1,5-a]pyrimidin-8-yl)-6-fluorobiphenyl-3-carbonitrile 0.25 acetate] | 396
6 | N#Cc1cc(-c2cccc(C3(c4ccncc4)N=C(N)N4CCCN=C43)c2)ccc1F (stereo not shown) [Example 22, 3′-(6-amino-8-pyridin-4-yl-2,3,4,8-tetrahydroimidazo[1,5-a]pyrimidin-8-yl)-4-fluorobiphenyl-3-carbonitrile 0.25 acetate] | 418
7 | NC1=NC(c2ccncc2)(c2cccc(-c3cccc(Cl)c3F)c2)C2=NCCCN12 (stereo not shown) [Example 23, 8-(3′-Chloro-2′-fluorobiphenyl-3-yl)-8-pyridin-4-yl-2,3,4,8-tetrahydroimidazo[1,5-a]pyrimidin-6-amine 0.25 acetate] | 99
8 | NC1=NC(c2ccncc2)(c2cccc(-c3cccc(C(F)(F)F)c3)c2)C2=NCCCN12 (stereo not shown) [Example 24, 8-Pyridin-4-yl-8-[3′-(trifluoromethyl)biphenyl-3-yl]-2,3,4,8-tetrahydroimidazo[1,5-a]pyrimidin-6-amine 0.25 acetate] | 390
9 | NC1=NC(c2ccncc2)(c2cccc(-c3cc(Cl)cnc3F)c2)C2=NCCCN12 (stereo not shown) [Example 29, 8-[3-(5-Chloro-2-fluoropyridin-3-yl)phenyl]-8-pyridin-4-yl-2,3,4,8-tetrahydroimidazo[1,5-a]pyrimidin-6-amine 0.25 acetate] | 87
10 | CCOc1cccc(-c2cccc(C3(c4ccncc4)N=C(N)N4CCCN=C43)c2)c1 (stereo not shown) [Example 30, 8-(3′-Ethoxybiphenyl-3-yl)-8-pyridin-4-yl-2,3,4,8-tetrahydroimidazo[1,5-a]pyrimidin-6-amine 0.25 acetate] | 328
11 | COc1cc(-c2cccc(C3(c4ccncc4)N=C(N)N4CCCN=C43)c2)ccc1F (stereo not shown) [Example 32, 8-(4′-Fluoro-3′-methoxybiphenyl-3-yl)-8-pyridin-4-yl-2,3,4,8-tetrahydroimidazo[1,5-a]pyrimidin-6-amine 0.25 acetate] | 515
12 | NC1=NC(c2ccncc2)(c2cccc(-c3cncc(F)c3)c2)C2=NCCCN12 (stereo not shown) [Example 34, 8-[3-(5-Fluoropyridin-3-yl)phenyl]-8-pyridin-4-yl-2,3,4,8-tetrahydroimidazo[1,5-a]pyrimidin-6-amine 0.25 acetate] | 186
13 | NC1=NC(c2ccncc2)(c2cccc(-c3cc(Cl)ccc3Cl)c2)C2=NCCCN12 (stereo not shown) [Example 36, 8-(2′,5′-Dichlorobiphenyl-3-yl)-8-pyridin-4-yl-2,3,4,8-tetrahydroimidazo[1,5-a]pyrimidin-6-amine 0.25 acetate] | 267
14 | NC1=NC(c2ccoc2)(c2cccc(-c3cc(Cl)cc(Cl)c3)c2)C2=NCCCN12 (stereo not shown) [Example 43, 8-(3′,5′-Dichlorobiphenyl-3-yl)-8-(3-furyl)-2,3,4,8-tetrahydroimidazo[1,5-a]pyrimidin-6-amine acetate] | 152
15 | NC1=NC(c2ccoc2)(c2cccc(-c3cccnc3F)c2)C2=NCCCN12 (stereo not shown) [Example 44, 8-[3-(2-Fluoropyridin-3-yl)phenyl]-8-(3-furyl)-2,3,48-tetrahydroimidazo[1,5-a]pyrimidin-6-amine acetate] | 656
16 | NC1=NC(c2cccc(-c3cc(Cl)cc(Cl)c3)c2)(c2ccco2)C2=NCCCN12 (stereo not shown) [Example 50, 8-(3′,5′-Dichlorobiphenyl-3-yl)-8-(2-furyl)-2,3,4,8-tetrahydroimidazo[1,5-a]pyrimidin-6-amine acetate] | 74
17 | COc1cccc(-c2cccc(C3(c4ccco4)N=C(N)N4CCCN=C43)c2)c1 (stereo not shown) [Example 51, 8-(2-Furyl)-8-(3′-methoxybiphenyl-3-yl)-2,3,4,8-tetrahydroimidazo[1,5-a]pyrimidin-6-amine acetate] | 472

Results, then the molecule that gave them:

Row | IC50 [nM] | Structure (SMILES)
18 | 117 | COc1cncc(-c2cccc(C3(c4ccncc4)N=C(N)N4CCCN=C43)c2)c1 (stereo not shown) [Example 15, 8-[3-(5-Methoxypyridin-3-yl)phenyl]-8-pyridin-4-yl-2,3,4,8-tetrahydroimidazo[1,5-a]pyrimidin-6-amine 0.25 acetate]
19 | 74 | COc1ccc(F)c(-c2cccc(C3(c4ccncc4)N=C(N)N4CCCN=C43)c2)c1 (stereo not shown) [Example 19, 8-(2′-Fluoro-5′-methoxybiphenyl-3-yl)-8-pyridin-4-yl-2,3,4,8-tetrahydroimidazo[1,5-a]pyrimidin-6-amine 0.25 acetate]
20 | 5080 | CS(=O)(=O)c1cccc(-c2cccc(C3(c4ccncc4)N=C(N)N4CCCN=C43)c2)c1 (stereo not shown) [Example 25, 8-[3′-(Methylsulfonyl)biphenyl-3-yl]-8-pyridin-4-yl-2,3,4,8-tetrahydroimidazo[1,5-a]pyrimidin-6-amine 0.25 acetate]
21 | 25 | NC1=NC(c2ccncc2)(c2cccc(-c3cc(Cl)cc(Cl)c3)c2)C2=NCCCN12 (stereo not shown) [Example 26, 8-(3′,5′-Dichlorobiphenyl-3-yl)-8-pyridin-4-yl)-2,3,4,8-tetrahydroimidazo[1,5-a]pyrimidin-6-amine 0.25 acetate]
22 | 66 | COc1cc(Cl)cc(-c2cccc(C3(c4ccncc4)N=C(N)N4CCCN=C43)c2)c1 (stereo not shown) [Example 27, 8-(3′-Chloro-5′-methoxybiphenyl-3-yl)-8-pyridin-4-yl-2,3,4,8-tetrahydroimidazo[1,5-a]pyrimidin-6-amine 0.25 acetate]
23 | 5070 | NC1=NC(c2ccncc2)(c2cccc(-c3cccc(Cl)c3Cl)c2)C2=NCCCN12 (stereo not shown) [Example 28, 8-(2′,3′-Dichlorobiphenyl-3-yl)-8-pyridin-4-yl-2,3,4,8-tetrahydroimidazo[1,5-a]pyrimidin-6-amine 0.25 acetate]
24 | 79 | NC1=NC(c2ccncc2)(c2cccc(-c3cc(Cl)ccc3F)c2)C2=NCCCN12 (stereo not shown) [Example 31, 8-(5′-Chloro-2′-fluorobiphenyl-3-yl)-8-pyridin-4-yl-2,3,4,8-tetrahydroimidazo[1,5-a]pyrimidin-6-amine 0.25 acetate]
25 | 57 | COc1cc(OS(C)(=O)=O)cc(-c2cccc(C3(c4ccncc4)N=C(N)N4CCCN=C43)c2)c1 (stereo not shown) [Example 35, 3′-(6-Amino-8-pyridin-4-yl-2,3,4,8-tetrahydroimidazo[1,5-a]pyrimidin-8-yl)-5-methoxybiphenyl-3-yl methanesulfonate 0.25 acetate]
26 | 99 | NC1=NC(c2ccncc2)(c2cccc(-c3ccc(F)c(Cl)c3)c2)C2=NCCCN12 (stereo not shown) [Example 37, 8-(3′-Chloro-4′-fluorobiphenyl-3-yl)-8-pyridin-4-yl-2,3,4,8-tetrahydroimidazo[1,5-a]pyrimidin-6-amine 0.25 acetate]
27 | 3790 | Cc1nc(C2(c3cccc(-c4cc(Cl)cc(Cl)c4)c3)N=C(N)N3CCCN=C32)cs1 (stereo not shown) [Example 57, 8-(3′,5′-Dichlorobiphenyl-3-yl)-8-(2-methyl-1,3-thiazol-4-yl)-2,3,4,8-tetrahydroimidazo[1,5-a]pyrimidin-6-amine acetate]
28 | 68 | NC1=NC(c2ccsc2)(c2cccc(-c3cc(Cl)cc(Cl)c3)c2)C2=NCCCN12 (stereo not shown) [Example 63, 8-(3′,5′-Dichlorobiphenyl-3-yl)-8-(3-thienyl)-2,3,4,8-tetrahydroimidazo[1,5-a]pyrimidin-6-amine acetate]
29 | 247 | NC1=NC(c2ccsc2)(c2cccc(-c3cccnc3F)c2)C2=NCCCN12 (stereo not shown) [Example 64, 8-[3-(2-Fluoropyridin-3-yl)phenyl]-8-(3-thienyl)-2,3,4,8-tetrahydroimidazo[1,5-a]pyrimidin-6-amine acetate]
30 | 59 | NC1=NC(c2ccncc2)(c2cccc(-c3cccnc3F)c2)C2=NCC(F)(F)CN12 (stereo not shown) [Example 68, 3,3-Difluoro-8-[3-(2-fluoropyridin-3-yl)phenyl]-8-pyridin-4-yl-2,3,4,8-tetrahydroimidazo[1,5-a]pyrimidin-6-amine 0.75 acetate]
31 | 120 | NC1=NC(c2ccncc2)(c2cccc(-c3cncc(F)c3)c2)C2=NCC(F)(F)CN12 (stereo not shown) [Example 71, 3,3-Difluoro-8-[3-(5-fluoropyridin-3-yl)phenyl]-8-pyridin-4-yl-2,3,4,8-tetrahydroimidazo[1,5-a]pyrimidin-6-amine acetate]
